Columns and labels:
[1] = target: His-tagged human recombinant kinase full-length Akt2 (Homo sapiens (Human), UniProt P31751); test: Akt2 kinase assay (Akt2 TR-FRET assay); format: biochemical; details: 10 μM ATP, 60 min at 22° C., read-out: Akt2 median IC50
Description: Akt2 inhibitory activity of compounds of the present invention was quantified employing the Akt2 TR-FRET assay as described in the following paragraphs.
His-tagged human recombinant kinase full-length Akt2 expressed in insect cells and activated by PDK1 was purchased form Invitrogen (part number PV 3975). As substrate for the kinase reaction the biotinylated peptide biotin-Ahx-[sequence] (C-terminus in amide form) was used which can be purchased e.g. from the company Biosynthan GmbH (Berlin-Buch, Germany). For the assay 50 nl of a 100 fold concentrated solution of the test compound in DMSO was pipetted into a black low volume 384 well microtiter plate (Greiner Bio-One, Frickenhausen, Germany), 2 μl of a solution of Akt2 in assay buffer [50 mM TRIS/HCl pH 7.5, 5 mM MgCl2, 1 mM dithiothreitol, 0.02% (v/v) Triton X-100 (Sigma)] were added and the mixture was incubated for 15 min at 22° C. to allow pre-binding of the test compounds to the enzyme before the start of the kinase reaction. Then the kinase reaction was started by the addition of 3 μl of a solution of adenosine-tri-phosphate (ATP, 16.7 μM=>final conc. in the 5 μl assay volume is 10 μM) and substrate (1.67 μM=>final conc. in the 5 μl assay volume is 1 μM) in assay buffer and the resulting mixture was incubated for a reaction time of 60 min at 22° C. The concentration of Akt2 in the assay was adjusted depending of the activity of the enzyme lot and was chosen appropriate to have the assay in the linear range, typical enzyme concentrations were in the range of about 0.2 ng/μl (final conc. in the 5 μl assay volume). The reaction was stopped by the addition of 5 μl of a solution of HTRF detection reagents (200 nM streptavidine-XL665 [Cisbio] and 1.5 nM anti-phosho-Serine antibody [Millipore, cat. #35-001] and 0.75 nM LANCE Eu-W 1024 labeled anti-mouse IgG antibody [Perkin Elmer]) in an aqueous EDTA-solution (100 mM EDTA, 0.1% (w/v) bovine serum albumin in 50 mM HEPES/NaOH pH 7.5). The resulting mixture was incubated 1 h at 22° C. to allow the binding of the biotinylated phosphorylated peptide to the streptavidine-XL665 and the antibodies. Subsequently the amount of phosphorylated substrate was evaluated by measurement of the resonance energy transfer from the anti-mouse-IgG-Eu-Chelate to the streptavidine-XL665. Therefore, the fluorescence emissions at 620 nm and 665 nm after excitation at 350 nm was measured in a TR-FRET reader, e.g. a Rubystar (BMG Labtechnologies, Offenburg, Germany) or a Viewlux (Perkin-Elmer). The ratio of the emissions at 665 nm and at 622 nm was taken as the measure for the amount of phosphorylated substrate.

phospho-AKT at S473 = test: Cellular p-AKT1/2/3-S473 assay in KPL-4 cells; format: cell-based; details: Homo sapiens, KPL4; KPL-4 breast tumour cell line, compound treatment 2 hours; read-out: pAKT-S473 median IC50
Protocol: (§1) The molecular mechanism of action was investigated in a set of experiments to assess the inhibition of the PI3K-AKT-mTOR pathway in responsive cell lines such as KPL-4 breast tumour cell line (PIK3CA^H1047R, HER2^O/E and hormone independent). The phospho-substrates of PI3K-AKT-mTOR axis were used as the read-outs to reflect pathway inhibition. Cells were seeded at 60-80% confluency per well in 96-well cell culture plates. After overnight incubation at 37° C. 5% CO2, cells were treated with compounds and vehicle at 37° C. for 2 hours. […] All measurements where at least done in duplicates and confirmed by independent repetition.
Alternatively pAKT-S473 was measured using the “Akt Duplex” of the MULTI-SPOT® Assay System (Fa. Meso Scale Discovery, Cat#N41100B-1) following manufacturers instructions. Each assay used 20 μg of protein extract and measured total AKT and p-AKT content simultaneously in one well. All measurements where at least done in duplicates and confirmed by independent repetition. Values for P-AKT are expressed as percentage of P-AKT level compared to total-AKT content of the extracts.

[2] = target: His-tagged human recombinant kinase full-length Akt1 (Homo sapiens (Human), UniProt P31749); test: Akt1 kinase assay (Akt1 TR-FRET assay); format: biochemical; details: 10 μM ATP, 60 min at 22° C., read-out: Akt1 median IC50
His-tagged human recombinant kinase full-length Akt1, sequence (P31749 whole entry): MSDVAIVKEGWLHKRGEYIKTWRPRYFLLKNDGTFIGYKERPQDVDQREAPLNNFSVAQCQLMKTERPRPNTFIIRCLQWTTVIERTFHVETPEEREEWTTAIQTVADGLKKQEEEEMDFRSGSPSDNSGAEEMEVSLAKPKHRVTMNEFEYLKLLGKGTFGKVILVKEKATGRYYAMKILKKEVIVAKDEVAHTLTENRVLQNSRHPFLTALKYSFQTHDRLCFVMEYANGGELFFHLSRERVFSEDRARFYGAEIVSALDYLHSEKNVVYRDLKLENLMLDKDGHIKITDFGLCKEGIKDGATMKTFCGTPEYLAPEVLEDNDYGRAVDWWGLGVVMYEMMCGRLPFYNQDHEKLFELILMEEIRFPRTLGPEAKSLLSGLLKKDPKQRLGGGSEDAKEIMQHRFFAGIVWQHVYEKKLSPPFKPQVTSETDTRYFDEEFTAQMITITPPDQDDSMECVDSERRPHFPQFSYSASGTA

[3] = test system: MCF-7 breast tumour cell line; test: Tumor cell proliferation assay (CellTiter-Glo), MCF-7; format: cell-based; details: Homo sapiens, MCF7, 72 h drug exposure, read-out: MCF-7 median IC50
Protocol: Biological Assay 4.0: Tumor Cell Proliferation Assays
Compounds were tested in a cell-based assay that measures the capacity of the compounds to inhibit tumour cell proliferation following a 72 h drug exposure. Cell viability is determined using CellTiter-Glow® (CTG, Promega, cat#G7571/2/3). The CellTiter-Glo® Luminescent Cell Viability Assay is a homogeneous method to determine the number of viable cells in culture.
Detection is based on using the luciferase reaction to measure the amount of ATP from viable cells. The amount of ATP in cells correlates with cell viability. Within minutes after a loss of membrane integrity, cells lose the ability to synthesize ATP, and endogenous ATPases destroy any remaining ATP; thus the levels of ATP fall precipitously.
For each cell line assayed, cells were plated onto a separate plate for determination of fluorescence at t=0 hour and t=72 hour time points. Following overnight incubation at 37° C., chemiluminescence values for the t=0 samples were determined after adding 10 μl medium and 100 μl CTG solution according to manufacture protocol. Plates for the t=72 hour time points were treated with compounds diluted into growth medium at ten times final concentration added in 10 μL to the cell culture plate. Cells were then incubated for 72 hours at 37° C. Chemiluminescence values for the t=72 hour samples were determined. […] Experiments were controlled using a reference compound as standard.

p-4E-BP1 at T70 = test: Cellular p-4E-BP1-T70 assay in KPL-4 cells; format: cell-based; details: Homo sapiens, KPL4; KPL-4 breast tumour cell line, compound treatment 2 hours; read-out: P4EBP1-T70 median IC50
Protocol: as §1

[4] = test system: KPL-4 breast cancer cell line; test: Tumor cell proliferation assay (CellTiter-Glo), KPL-4; format: cell-based; details: Homo sapiens, KPL4, 72 h drug exposure, read-out: KLP-4 median IC50

His-tagged human recombinant kinase full-length Akt2, sequence (P31751 whole entry): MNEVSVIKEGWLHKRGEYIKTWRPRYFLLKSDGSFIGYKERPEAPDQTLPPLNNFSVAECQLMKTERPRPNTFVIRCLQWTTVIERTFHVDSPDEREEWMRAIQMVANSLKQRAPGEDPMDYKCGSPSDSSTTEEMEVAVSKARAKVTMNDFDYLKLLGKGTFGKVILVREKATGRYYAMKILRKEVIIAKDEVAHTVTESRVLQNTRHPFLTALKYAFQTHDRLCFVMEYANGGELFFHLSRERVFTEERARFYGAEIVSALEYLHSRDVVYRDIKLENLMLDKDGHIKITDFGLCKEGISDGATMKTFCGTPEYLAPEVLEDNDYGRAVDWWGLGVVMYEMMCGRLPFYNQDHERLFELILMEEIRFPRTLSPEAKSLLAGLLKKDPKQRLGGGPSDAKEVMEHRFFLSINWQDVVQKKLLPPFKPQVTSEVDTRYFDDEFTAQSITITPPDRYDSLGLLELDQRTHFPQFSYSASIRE

Row | Compound | IC50 [1] [nM] | IC50 (phospho-AKT at S473) [nM] | IC50 [2] [nM] | IC50 [3] [nM] | IC50 (p-4E-BP1 at T70) [nM] | IC50 [4] [nM]
1 | CCOc1cc(OCC)c2nc(-c3ccc(C4(N)CCC4)cc3)c(-c3ccccc3)n2n1 [Example 76, 1-[4-(6,8-Diethoxy-3-phenylimidazo[1,2-b]pyridazin-2-yl)phenyl]cyclobutanamine] | 23 | 120 | 11 | 940 | 940 | 1700
2 | Cc1c(C(N)=O)nn2c(-c3ccccc3)c(-c3ccc(C4(N)CCC4)cc3)nc2c1C [Example 52, 2-[4-(1-Aminocyclobutyl)phenyl]-7,8-dimethyl-3-phenylimidazo[1,2-b]-pyridazine-6-carboxamide] | 15 | 2.1 | 26 | 110 | 9.9 | 140

Reference: patent publication US9604989B2, “Imidazopyridazines as Akt kinase inhibitors” (Bayer Intellectual Property GmbH, priority 2011, dated 2017)
